Data published in patent US7449301B2, “Pharmaceutical composition and method for activating macrophage using the same” (National University Corporation Gunma University, priority 2004, dated 2008).

Tests used:
Type in all cases: cell-based, mouse
MAPK = assay: Immunoblot of activated (phosphorylated) MAPK in PEMs; conditions: 50 μM PD98059 or 2 μM U0126, FIG. 2B, C bottom
Description: PEMs were treated with anti-SIRPβ antibody or control IgG, and a secondary antibody, and incubated at 37° C. for 10 min. As a positive control, PEMs were incubated at 37° C. for 10 min in the presence of M-CSF (macrophage colony stimulating factor) (10 ng/ml). As a negative control, non-treated PEMs were used. Then, cells were lysed and subjected to immunoblot analysis using an anti-MAPK antibody (αMAPK), anti-activated (phosphorylated) MAPK antibody (αpMAPK), anti-MEK antibody (αMEK) or anti-activated MEK antibody (αpMEK) (FIG. 2A).
Then, the MEK inhibitors, PD98059 and U0126 were used to examine the role of MAPK-MEK pathway in the macrophage activation by an anti-SIRPβ antibody. PEMs were incubated in the presence or absence of 50 μM PD98059 or 2 μM U0126 at 37° C. for 30 min, and then treated with an anti-SIRPβ antibody or control IgG, and a secondary antibody. After incubation with IgG-opsonized RBCs at 37° C. for 5 min, cells were fixed and phagocytosis index was calculated (FIG. 2B, C; upper figures). On the other hand, PEMs were treated with an anti-SIRPβ antibody or control IgG, and a secondary antibody in the presence or absence of the inhibitors, followed by an analysis using an anti-MAPK antibody (αMAPK) and an anti-activated (phosphorylated) MAPK antibody (αpMAPK) (FIG. 2B, C; bottom figures). […]

PEMs = assay: Immunocytofluorescence of PEMs (morphology, F-actin, activated MAPK); conditions: PEMs treated with mAb80 in presence of inhibitor; FIG. 4B
Description: PEMs treated with rat IgG, mAb80 or mAb84 were fixed for 20 to 30 min at room temperature in PBS containing 4% paraformaldehyde and 0.1% glutaraldehyde, and were then permeabilized for 60 min at room temperature in PBS containing 0.1% Triton X-100 and 5% goat serum (blocking solution). After incubation for 1 h at room temperature or overnight at 4° C. with primary antibody (anti-activated MAPK antibody) diluted in blocking solution, the cells were washed with PBS and incubated for 1 h at room temperature with Alexa488-conjugated secondary antibodies (Molecular Probes) diluted in blocking solution. For visualization of F-actin, cells were incubated with rhodamine-conjugated phalloidin (Molecular Probes) together with the secondary antibodies. The cells were finally washed with PBS and mounted. Fluorescence images were acquired with a laser-scanning confocal microscope (LSM5 PASCAL, Zeiss) (FIG. 4).

[1] = system: peritoneal macrophages (PEMs); assay: Phagocytosis assay of PEMs with RBCs (phagocytosis index); conditions: PEMs preincubated 30 min with ML-7 10 μM or BDM 50 mM; IgG-opsonized RBCs 5 min; FIG. 3

| SMILES | activation of MAPK by mAb80 and mAb84 in the presence of MEK inhibitor (MAPK) | effect of inhibitor on morphological change of PEMs induced by anti-SIRPβ antibody (PEMs) | effect of inhibitor on anti-SIRPβ antibody activation of macrophage-mediated phagocytosis [1] |
| --- | --- | --- | --- |
| COc1cccc(-c2cc(=O)c3ccccc3o2)c1N [PD98059] | did not occur | markedly inhibited | – |
| O=S(=O)(c1cccc2c(I)cccc12)N1CCCNCC1 [ML-7] | – | markedly inhibited | attenuated the activation of macrophages-mediated phagocytosis |
| N#CC(=C(/N)Sc1ccccc1N)/C(C#N)=C(\N)Sc1ccccc1N [U0126] | did not occur | – | – |
| CC(=O)C(C)=NO [BDM, 2,3-butanedione 2-monoxime] | – | – | attenuated the activation of macrophages-mediated phagocytosis |
